From patent US20250115603A1, “CRYSTALLINE FORMS OF A KRAS INHIBITOR” (Incyte Corporation, priority 2023, published 2025)
Where a name gives a salt, the structure may show the parent alone. Marks after values point to notes of the source that are not given here.

Tests used:
Format in all cases: physicochemical
[1] = Solubility measurement at 25° C. (HPLC of saturated solution); details: for solubility: 25 °C, organic solvent or mixture; for Solubility (25° C.): monohydrochloride dihydrate
Description: (§1) The solubility of the Compound 1 HCl sample (prepared according to Example 4) was measured according to the procedure for solubility at 25° C. in Table 8 and the procedure for solubility at 50° C. in Table 9.

[2] = Solubility measurement at 50° C. (HPLC of saturated solution); details: for Solubility (50° C.): monohydrochloride dihydrate; for solubility: 50 °C, organic solvent or mixture
Description: as §1

[3] = Compound 1 hydrochloride polymorph screening; details: nine polymorphs (Forms I-IX) identified by standard polymorph screening
[4] = 2-Methoxyethanol, by visual assessment
[5] = Dimethylformamide, by visual assessment
[6] = n-Propanol, by visual assessment

## Cc1nc2c(F)c(-c3cccc(Cl)c3Cl)c(CCC#N)cc2c2c1cc(C1CC3C[C@H]3N1C(=O)C1CC1)n2C1[C@H]2CN[C@@H]1C2 (atropisomer, axis not shown; (Ra)) [Compound 1 HCl, 3-((Ra)-1-((1R,4R,5S)-2-azabicyclo[2.1.1]hexan-5-yl)-2-((1R,3R,5R)-2-(cyclopropanecarbonyl)-2-azabicyclo[3.1.0]hexan-3-yl)-7-(2,3-dichlorophenyl)-6-fluoro-4-methyl-1H-pyrrolo[3,2-c]quinolin-8-yl)propanenitrile monohydrochloride dihydrate]
[1]; [4]
  solubility: > 50 mg/mL
  Solubility (25° C.): >50* mg/mL
[1]; DMSO, by visual assessment
  solubility: > 50 mg/mL
  Solubility (25° C.): >50* mg/mL
[1]; [5]
  solubility: > 50 mg/mL
  Solubility (25° C.): >50* mg/mL
[1]; MeOH, by visual assessment
  solubility: > 50 mg/mL
  Solubility (25° C.): >50* mg/mL
[1]; Methyl iso-butyl ketone
  solubility: 1 to 15 mg/mL
  Solubility (25° C.): 1.3 mg/mL
[1]; Tetrahydrofuran (THF)
  solubility: < 1 mg/mL
  Solubility (25° C.): 0.9 mg/mL
[1]; heptane
  solubility: 0.01 mg/mL
[1]; n-BuOH, by visual assessment
  solubility: > 50 mg/mL
  Solubility (25° C.): >50* mg/mL
[2]; [4]
  Solubility (50° C.): >50* mg/mL
[2]; 2-methoxyethanol, by visual assessment
  solubility: > 50 mg/mL
[2]; 3% MeOH 0.3% water in EtOAc
  Solubility (50° C.): 0.8 mg/mL
[2]; 3% MeOH, 0.3% water in EtOAc, 3% MeOH 0.3% water in EtOAc
  solubility: < 1 mg/mL
[2]; Acetone
  Solubility (50° C.): 19.2 mg/mL
[2]; Chloroform
  Solubility (50° C.): 21.2 mg/mL
[2]; DMSO, by visual assessment
  solubility: > 50 mg/mL
  Solubility (50° C.): >50* mg/mL
[2]; [5]
  Solubility (50° C.): >50* mg/mL
[2]; EtOH
  solubility: 15 to 50 mg/mL
  Solubility (50° C.): 22.3 mg/mL
[2]; Ethyl formate
  solubility: < 1 mg/mL
  Solubility (50° C.): 0.6 mg/mL
[2]; MeOH, by visual assessment
  solubility: > 50 mg/mL
  Solubility (50° C.): >50* mg/mL
[2]; acetone
  solubility: 15 to 50 mg/mL
[2]; chloroform
  solubility: 15 to 50 mg/mL
[2]; dimethylformamide, by visual assessment
  solubility: > 50 mg/mL
[2]; heptane
  solubility: 0.02 mg/mL
[2]; iso-Propanol (IPA), by visual assessment
  Solubility (50° C.): >50* mg/mL
[2]; iso-propanol (IPA), by visual assessment
  solubility: > 50 mg/mL
[2]; n-BuOH, by visual assessment
  solubility: > 50 mg/mL
  Solubility (50° C.): >50* mg/mL
[2]; [6]
  solubility: > 50 mg/mL
  Solubility (50° C.): >50* mg/mL
[3]
  Relative stability of crystalline forms of Compound 1 HCl: most stable form
